Two compounds from patent US20110060000A1, “ACRIDINE ANALOGS IN THE TREATMENT OF GLIOMAS” (priority 2009, published 2011) can be followed below.

Entries after “also recorded” stand apart in the source; their conditions may differ.

One assay concerns astrocytes. Nature of the assay: [Ca2+]i measurement in astrocytes. Type of assay: cell-based, rat. The text has this: (§1) (Statistical analysis it is shown in the inset. Values at the peak of the response have been analyzed using ANOVA followed by T-test, ** indicate P<0.01.).
(§2) Ca^2+ mobilization from ER was caused using an agonist acting via inositol trisphosphate elevation, mimicking physiological responses. In these conditions the dynamics of Ca^2+ transients were observe in these two cell lines. It appears evident that the plateau phase in C6 is consistently larger than in astrocytes.
(§3) Panel A: Challenge of astrocytes with ATP show the unchanged typical spike and plateau response. Panel B: In C6 an oscillatory pattern is readily detectable in response to treatment with TUN.
Tools and protocols have been developed to cleanly observe capacitative Ca^2+ entry (CCE), the phenomenon that allows the replenishment of intracellular Ca^2+ (ICS) stores and make quantitative and qualitative assessments. In particular, in astrocytes, capacitative Ca^2+ entry happens in absence of cytoplasmic Ca^2+ concentration ([Ca^2+]i) elevation (Grimaldi; 2006)(FIG. 1). […]
(§4) This phase is dependent on the balance of Ca^2+ influx triggered by store depletion and the reuptake in the ER due to SERCA activity. […] To investigate the role of influx triggered by ICS depletion, CCE was analyzed following THAP-induced depletion of ICS. […]

Assay [1] has as its system GRP78. Briefly: GRP78 protein expression (SDS-PAGE, immunoblot) in C6. It is filed as cell-based, rat. As to conditions: for GRP78 expression in C6 after challenge: brief exposure (8 h), FIG. 11; for GRP78 protein expression in C6: graded concentrations, THAP 24 hours, TUN 8 hours. The method, then:
(§5) Astrocytes and C6 were exposed to graded concentration of THAP as indicated in the captions for 24 hours. Thereafter, protein were extracted and run on a SDS-PAGE and immunoblotted with an anti-GRP78 antibody. Filters were exposed to ECL and films were impressed and developed (Panel B). Films were digitalized using a high resolution scanner and analyzed used imageJ (NIH). Densitometric values were averaged and plotted in the graph (Panel A). Loading conditions were checked using GAPDH housekeeping gene.
(§6) Astrocytes and C6 were exposed to TUN for 8 hours at concentrations ranging from 1.25 μg/ml to 10 μg/ml. Proteins were extracted, separated on a SDS-PAGE and immunoblotted. Filters were exposed to ECL and used to impress films (Panel B). Developed films were subsequently digitized with a high resolution scanner and analyzed with the software ImageJ (NIH). Densitometric values were averaged and plotted in the graph (Panel A).
(§7) Cells were treated as specified in the graph labeling. It is evident that glioma cells have enhanced GRP78 expression than astrocytes regardless of the challenging agent. N.T.=untreated; D=DMSO; T=TUN; Th=THAP.

The subject of a further assay is caspase 12. Nature of the assay: Procaspase 12 cleavage in C6. It is filed as cell-based, rat. The method, then: Cells were treated with the agents as indicated in the x axis. Subsequently cells were harvested and protein was extracted and then separated via SDS-PAGE and immunoblotted. The arrow highlights the 45 kDa band that results from cleavage of procaspase 12 and corresponding to the active caspase.
Thereafter, cells were harvested and protein extracted. Procaspase 12 band at 65 kDa was identified. In some of the treatments, the active product at 45 kDa was also detected. […] Conversely, in C6, higher GRP78 levels and the cell environment reflect significant caspase activation. […] Caspase activation in ERSR conditions was also confirmed with a TUNEL based apoptosis detection system in C6. C6 were treated with THAP for 24 hours and thereafter processed for TUNEL accordingly to manufacturer instructions. Staurosporin, a well known inducer of apoptosis in glial cells, was also included as a positive control. High resolution images of the experiments were acquired and image morphometric analysis was performed to determine quantitative parameters of the staining as previously described (Pascale et al., 2004, “Translocation of protein kinase C-betaII in astrocytes requires organized actin cytoskeleton and is not accompanied by synchronous RACK1 relocation.” Glia 46(2): 169-82). […]

For assay [2], the system named is GRP78. Nature of the assay: GRP78 protein expression (SDS-PAGE, immunoblot) in astrocytes. Type of assay: cell-based, rat. The conditions noted are these: for GRP78 levels in astrocytes after challenge: brief exposure (8 h), FIG. 11; for GRP78 protein expression in astrocytes: graded concentrations, THAP 24 hours, TUN 8 hours. The method, then: as §5, §6, §7
Another assay concerns C6. Nature of the assay: [Ca2+]i measurement in C6. It is filed as cell-based, rat.
From the text: as §1, §2, §3
Tools and protocols have been developed to cleanly observe capacitative Ca^2+ entry (CCE), the phenomenon that allows the replenishment of intracellular Ca^2+ (ICS) stores and make quantitative and qualitative assessments. In particular, in astrocytes, capacitative Ca^2+ entry happens in absence of cytoplasmic Ca^2+ concentration ([Ca^2+]i) elevation (Grimaldi; 2006)(FIG. 1). […] The study was designed to investigate if there was a difference between astrocytes and glial cancer cells in this distinctive homeostatic pattern. The findings presented in this study, indicate that there are striking differences between glial cells and their cancer counterpart. The model utilizes rat cells but the observations extend and apply to human glioma cells as well. When the responses of normal astrocytes and C6 cells to thapsigargin (THAP), an agent able to block SERCA, therefore causing the release of Ca^2+ from the ER, were compared it was evident that C6 was more sensitive to the THAP (FIG. 2). However, the difference can be ascribed to one of many possibilities. […]
as §4

Assay [3] relates to GRP78. Nature of the assay: GRP78 protein expression in U87-MG. It is filed as cell-based, human. As to conditions: brief exposure (8 h), FIG. 11. The method, then: as §7
Also it has been speculated that the increased higher constitutive expression in glioma cells determines their resilience to the hostile growth environment, to pharmacological treatment and to radiotherapy. However, these studies were performed comparing human astrocytes from repositories to several human malignant cell lines both commercially available or from patients. […] Therefore, in light of the preliminary observations, experiments were conducted in order to further investigate the phenomenon with the aim to better understand it. Experiments were performed using primary rat astrocytes and their glioma counterpart, the C6 cells; also, human glioma cells, such as U87-MG, were used. The latter have been widely used in assessing human glioma properties. Unstimulated expression levels of GRP78 were compared in these cells. In FIG. 11 it is possible to view that unstimulated GRP78 expression in these three cell types is very low.

Turning to `C/C=C(/C)C(=O)O[C@H]1C(C)=C2[C@H]([C@@H]1OC(=O)CCCCCCC)[C@@](C)(OC(C)=O)C[C@H](OC(=O)CCC)[C@@]1(O)[C@H]2OC(=O)[C@@]1(C)O` [THAP, thapsigargin], the “[Ca2+]i elevation in astrocytes” value in the assay on astrocytes (2 μM THAP) was “caused elevation of [Ca^2+]i”. For the same compound, the 50% effective concentration (EC50) in the assay with GRP78 [1] (Rattus norvegicus, Astrocyte, stated in GRP78 expression experiment, astrocytes and C6, read-out: EC50 of the substance) fell in the range of 2 to 5 nM. In the assay on GRP78 [1], the “GRP78 expression in C6 after challenge” value was “enhanced significantly” and the “GRP78 protein expression in C6” value was “stronger elevation; also recorded: dramatically higher elevation of GRP78”. Further, the “activation of caspase 12 (45 kDa active product) in C6” value in the assay on caspase 12 is “significant activation of caspase 12”. In addition, in the assay with GRP78 [2], the “GRP78 levels in astrocytes after challenge” value was “always significantly lower than levels reached in C6 and U87-MG”; the “GRP78 protein expression in astrocytes” value is listed as “increased GRP78 expression”. Moreover, in the assay with C6 (2 μM THAP), the “[Ca2+]i elevation in C6” value is reported as “significantly higher than in astrocytes”. In the assay with GRP78 [3], the “GRP78 expression in U87-MG after challenge” value is on record as “enhanced significantly”.

As for tunicamycin, in the assay with astrocytes (challenge with ATP), the “Ca2+ transients in astrocytes after TUN pretreatment” value is on record as “transients were not changed”. In the assay with GRP78 [1], the “GRP78 expression in C6 after challenge” value was “enhanced significantly” and the “GRP78 protein expression in C6” value was “concentration related elevation of GRP78 protein expression; also recorded: larger in C6 than in astrocytes at every concentration tested”. The “activation of caspase 12 (45 kDa active product) in C6” value in the assay with caspase 12 is recorded as “significant activation of caspase 12”. In the assay on GRP78 [2], the “GRP78 levels in astrocytes after challenge” value is “always significantly lower than levels reached in C6 and U87-MG”; the “GRP78 protein expression in astrocytes” value is listed as “concentration related elevation of GRP78 protein expression”. In the assay with C6 (challenge with ATP), the “Ca2+ transients in C6 after TUN pretreatment” value is “appearance of [Ca^2+]i oscillations at high frequency and high amplitude”. For the same compound, in the assay with GRP78 [3], the “GRP78 expression in U87-MG after challenge” value is on record as “enhanced significantly”.
